Like-named read-outs stand apart in the source and are kept apart here.
System: SMN2-linked luciferase-reporter gene construct
Assay: SMN splice reporter assay (SMN2-linked luciferase reporter, Example 10)
Assay type: cell-based
Settings: for maximal fold induction: read-out: SMN Splice Reporter Assay (Example 10) Avg MaxFold Increase
Description: Cervical carcinoma cell lines were transformed with a SMN2-linked luciferase-reporter gene construct. The reporter is designed to detect shifts in the alternative splicing of SMN2 sequences. In particular, the reporter is constructed as a fusion of the alternatively spliced sequences of the SMN2 gene and the luciferase gene. Luciferase sequences are in the correct translational reading frame only when the SMN2 sequences are spliced according to the normal SMN1 mechanism (e.g., splicing to include exon 7), which allows for translation of the stable SMN protein. Compounds were tested in the assay by administering the compound to the cell line and detecting an increase in the luciferase activity. The assay is described in greater detail in Zhang et al., Gene Ther., 8, 1532-8 (2001). Compounds were administered as described in Lunn et al, Chem. & Biol, 11, 1489-1493 (2004).
The results are reported as a fold-increase over a baseline reading of transformed cells without any test compound.

[1] = maximum fold increase of reporter signal, average
[2] = SMN2-linked luciferase reporter, average
[3] = SMN2-linked luciferase reporter, average maximum fold increase

EC50 [2] [nM] | SMILES | maximal fold induction [1] | maximal fold induction [3] | SMN Splice Reporter Assay (Example 10) Avg MaxFold Increase [1]
298 | CCCc1ccc2c(c1)C(=O)N(c1ccc(C(C)C)cc1)C2 [ALB-114939] | 1.43 | – | –
699 | CCCc1ccc2c(c1)C(=O)N(c1ccc(C(C)COC)cc1)C2 (centres unmarked) [ALB-114091] | 1.46 | – | –
179 | COCC(C)c1ccc(N2Cc3ccccc3C2=O)cc1 (centres unmarked) [ALB-113389] | 1.34 | – | –
52 | COCc1ccc2c(c1)C(=O)N(c1ccc(C(C)C(=O)O)cc1)C2 (centres unmarked) [ALB-114439] | 1.51 | – | –
83 | CC(C(=O)O)c1ccc(N2Cc3ccc(OCC4CCC4)cc3C2=O)cc1 (centres unmarked) [ALB-115585] | 1.48 | – | –
51 | Cc1ccc2c(c1)C(=O)N(c1ccc(C(C)(C)C)cc1)C2 [ALB-116068] | 1.35 | – | –
1900 | CC(C(=O)O)c1ccc(N2Cc3ccc(CN4CCOCC4)cc3C2=O)cc1 (centres unmarked) [ALB-114438] | 1.27 | – | –
226 | C/C=C(\C)c1ccc2c(c1)C(=O)N(c1ccc(C(C)C(=O)O)cc1)C2 (centres unmarked) [ALB-114087] | 1.88 | – | –
325 | CCOC(=O)C(C)c1ccc(N2Cc3ccccc3C2=O)cc1 (centres unmarked) [ALB-111732] | 1.41 | – | –
303 | CC(CN)c1ccc(N2Cc3ccccc3C2=O)cc1 (centres unmarked) [ALB-114604] | 1.39 | – | –
79 | C=Cc1ccc2c(c1)C(=O)N(c1ccc(C(C)C(=O)O)cc1)C2 (centres unmarked) [ALB-113965] | 1.83 | – | –
1120 | CCCCCc1ccc2c(c1)C(=O)N(c1ccc(C(C)C(=O)O)cc1)C2 (centres unmarked) [ALB-113388] | 1.77 | – | –
242 | CCOc1ccc2c(c1)C(=O)N(c1ccc(C(C)C(=O)OC(C)(C)C)cc1)C2 (centres unmarked) [ALB-113101] | 1.38 | – | –
68 | O=C1c2cc3c(cc2CN1c1ccc(C2CC2)cc1)OCCO3 [ALB-117043] | – | 1.57 | –
81 | CC(C(=O)O)c1ccc(N2Cc3ccc(OC4CCCC4)cc3C2=O)cc1 (centres unmarked) [ALB-113493] | 1.89 | – | –
61 | CCCCc1ccc2c(c1)C(=O)N(c1ccc(C(C)C(=O)O)cc1)C2 (centres unmarked) [ALB-115086] | 2.06 | – | –
298 | CCc1ccc2c(c1)C(=O)N(c1ccc(C(C)COC)cc1)C2 (centres unmarked) [ALB-115328] | 1.5 | – | –
74 | CC(C)COc1ccc2c(c1)C(=O)N(c1ccc(C(C)C(=O)O)cc1)C2 (centres unmarked) [ALB-115325] | 1.57 | – | –
6 | Cc1ccc2c(c1)C(=O)N(c1ccc(C3CC3)cc1)C2 [ALB-115949] | – | 1.37 | –
4210 | CC(C(=O)OC(C)(C)C)c1ccc(N2Cc3ccc(Br)cc3C2=O)cc1 (centres unmarked) [ALB-112327] | 1.47 | – | –
1840 | CCc1cccc2c1C(=O)N(c1ccc(C(C)C(=O)O)cc1)C2 (centres unmarked) [ALB-113395] | 1.49 | – | –
103 | CCc1ccc2c(c1)C(=O)N(c1ccc(C(C)C(=O)O)cc1)C2 (centres unmarked) [ALB-113212] | 1.87 | – | –
78 | CCC(C)c1ccc2c(c1)C(=O)N(c1ccc(C(C)C(=O)O)cc1)C2 (centres unmarked) [ALB-114088] | 2.19 | – | –
5560 | CC(C(=O)OC(C)(C)C)c1ccc(N2Cc3cc(Cl)ccc3C2=O)cc1 (centres unmarked) [ALB-111761] | 1.19 | – | –
319 | COc1cc2c(cc1OC)C(=O)N(c1ccc(C(C)C)cc1)C2 [ALB-117672] | 1.47 | – | –
2880 | C=Cc1ccc2c(c1)C(=O)N(c1ccc(C(C)C(=O)OC(C)(C)C)cc1)C2 (centres unmarked) [ALB-113210] | 1.15 | – | –
299 | COCc1ccc2c(c1)C(=O)N(c1ccc(C(C)CO)cc1)C2 (centres unmarked) [ALB-114941] | 1.35 | – | –

The next lines start with the compound.

SMILES | EC50 [2] [nM] | maximal fold induction [1] | maximal fold induction [3] | SMN Splice Reporter Assay (Example 10) Avg MaxFold Increase [1]
CCOCC(C)c1ccc(N2Cc3ccccc3C2=O)cc1 (centres unmarked) [ALB-114744] | – | 1.18 | – | –
CC(C(=O)OC(C)(C)C)c1ccc(N2Cc3c(C#N)cccc3C2=O)cc1 (centres unmarked) [ALB-112350] | – | 1.18 | – | –
CC(C(=O)O)c1ccc(N2Cc3c(cccc3-c3ccc(Cl)cc3)C2=O)cc1 (centres unmarked) [ALB-112223] | 11000 | 1.31 | – | –
CC(C)c1ccc(N2Cc3ccc(NC(=O)N(C)c4ccccc4)cc3C2=O)cc1 [ALB-118733] | – | – | 1.12 | –
CC(C(=O)OC(C)(C)C)c1ccc(N2Cc3c(Br)cccc3C2=O)cc1 (centres unmarked) [ALB-112064] | – | 1.04 | – | –
CCCN(C)C(=O)Nc1ccc2c(c1)C(=O)N(c1ccc(C(C)C)cc1)C2 [ALB-118898] | – | – | 1.06 | –
CC(C(=O)OC(C)(C)C)c1ccc(N2Cc3ccccc3C2=O)cc1-c1ccccc1 (centres unmarked) [ALB-112197] | – | 1.07 | – | –
CC(C(=O)OC(C)(C)C)c1ccc(N2Cc3ccc(-c4ccc(Cl)cc4)cc3C2=O)cc1 (centres unmarked) [ALB-112443] | – | 1.07 | – | –
COc1ccc(-c2cccc3c2CN(c2ccc(C(C)C(=O)O)cc2)C3=O)cc1 (centres unmarked) [ALB-112222] | – | 1.42 | – | –
CC(C(=O)OC(C)(C)C)c1ccc(N2Cc3ccccc3C2=O)c(-c2cccnc2)c1 (centres unmarked) [ALB-112172] | – | 1.04 | – | –
COc1cc2c(c(OC)c1Br)C(=O)N(c1ccc(C(C)C)cc1)C2 [ALB-117901] | – | 1.07 | – | –
CC(C(=O)O)c1ccc(N2Cc3ccccc3C2=O)c(-c2ccccc2)c1 (centres unmarked) [ALB-112165] | – | 1.15 | – | –
COc1cccc2c1C(=O)N(c1ccc(C(C)C(=O)OC(C)(C)C)cc1)C2 (centres unmarked) [ALB-111955] | 396 | 1.08 | – | –
CC(C(=O)OC(C)(C)C)c1ccc(N2Cc3ccccc3C2=O)cc1 (centres unmarked) [ALB-111730] | 1660 | – | – | 1.267
COc1cc2c(cc1O)CN(c1ccc(C(C)C)cc1)C2=O [ALB-118035] | – | – | 1.13 | –
Cc1ccc(-c2cccc3c2CN(c2ccc(C(C)C(=O)O)cc2)C3=O)cc1 (centres unmarked) [ALB-112221] | – | 1.33 | – | –
CC(C(=O)OC(C)(C)C)c1ccc(N2Cc3c(cccc3-c3ccc(Cl)c(Cl)c3)C2=O)cc1 (centres unmarked) [ALB-112186] | – | 1.08 | – | –
O=C1c2ccccc2CN1c1ccc(C2(C(=O)O)CC2)cc1 [ALB-112434] | – | 1.28 | – | –
COCc1ccc(N2Cc3ccccc3C2=O)cc1 [ALB-115323] | – | 1.1 | – | –
CC(C(=O)O)c1ccc(N2Cc3c(C#N)cccc3C2=O)cc1 (centres unmarked) [ALB-112351] | – | 1.21 | – | –
CC(C)c1cccc2c1C(=O)N(c1ccc(C(C)C(=O)O)cc1)C2 (centres unmarked) [ALB-113565] | – | 1.19 | – | –
CC(C(=O)O)c1ccc(N2Cc3ccccc3C2=O)c(-c2cccs2)c1 (centres unmarked) [ALB-112233] | – | 1.03 | – | –
CCNC(=O)C(C)c1ccc(N2Cc3ccccc3C2=O)cc1 (centres unmarked) [ALB-112073] | – | 1.18 | – | –
CC(C(=O)OC(C)(C)C)c1ccc(N2Cc3ccc(-c4ccccc4)cc3C2=O)cc1 (centres unmarked) [ALB-112441] | – | 1.08 | – | –
CC(C(=O)OC(C)(C)C)c1ccc(N2Cc3cc(-c4ccc(Cl)c(Cl)c4)ccc3C2=O)cc1 (centres unmarked) [ALB-111854] | – | 1.04 | – | –
CC(C(=O)OC(C)(C)C)c1ccc(N2Cc3ccc(-c4cncnc4)cc3C2=O)cc1 (centres unmarked) [ALB-112476] | – | 1.08 | – | –
CC(=O)c1cccc2c1C(=O)N(c1ccc(C(C)C(=O)O)cc1)C2 (centres unmarked) [ALB-113496] | – | 1.18 | – | –
CCOc1ccc2c(c1)CN(c1ccc(C(C)C)cc1)C2=O [ALB-118276] | – | 1.05 | – | –
CC(C(=O)O)c1ccc(N2Cc3cc(O)ccc3C2=O)cc1 (centres unmarked) [ALB-113560] | – | 1.05 | – | –
